ChEMBL document CHEMBL1629685, “Macrolide and clindamycin resistance in Streptococcus milleri group isolates from the airways of cystic fibrosis patients” (2010)

Assays:
Type in all cases: functional
[1] = tested on: Streptococcus constellatus; test: Antimicrobial activity against invasive Streptococcus constellatus obtained from non-cystic fibrosis patient assessed as non-susceptible isolates grown on brain heart infusion agar at 30 ug/ml after 24 hrs at 37 degC by disk diffusion method
[2] = tested on: Streptococcus constellatus; test: Antimicrobial activity against invasive Streptococcus constellatus obtained from non-cystic fibrosis patient assessed as non-susceptible isolates grown on mueller-Hinton blood agar at 30 ug/ml after 24 hrs at 37 degC by disk diffusion method in presence of 5% defribinated sheep blood
[3] = tested on: Streptococcus constellatus; test: Antimicrobial activity against Streptococcus constellatus obtained from patient with cystic fibrosis assessed as non-susceptible isolates grown on mueller-Hinton blood agar at 30 ug/ml after 24 hrs at 37 degC by disk diffusion method in presence of 5% defribinated sheep blood
[4] = tested on: Streptococcus intermedius; test: Antimicrobial activity against invasive Streptococcus intermedius obtained from non-cystic fibrosis patient assessed as non-susceptible isolates grown on mueller-Hinton blood agar at 30 ug/ml after 24 hrs at 37 degC by disk diffusion method in presence of 5% defribinated sheep blood
[5] = tested on: Streptococcus intermedius; test: Antimicrobial activity against invasive Streptococcus intermedius obtained from non-cystic fibrosis patient assessed as non-susceptible isolates grown on brain heart infusion agar at 30 ug/ml after 24 hrs at 37 degC by disk diffusion method
[6] = tested on: Streptococcus anginosus; test: Antimicrobial activity against invasive Streptococcus anginosus obtained from non-cystic fibrosis patient assessed as non-susceptible isolates grown on brain heart infusion agar at 30 ug/ml after 24 hrs at 37 degC by disk diffusion method
[7] = tested on: Streptococcus constellatus; test: Antimicrobial activity against Streptococcus constellatus obtained from patient with cystic fibrosis assessed as non-susceptible isolates grown on brain heart infusion agar at 30 ug/ml after 24 hrs at 37 degC by disk diffusion method
[8] = tested on: Streptococcus anginosus; test: Antimicrobial activity against Streptococcus anginosus obtained from patient with cystic fibrosis assessed as non-susceptible isolates grown on brain heart infusion agar at 30 ug/ml after 24 hrs at 37 degC by disk diffusion method
[9] = tested on: Streptococcus intermedius; test: Antimicrobial activity against Streptococcus intermedius obtained from patient with cystic fibrosis assessed as non-susceptible isolates grown on mueller-Hinton blood agar at 30 ug/ml after 24 hrs at 37 degC by disk diffusion method in presence of 5% defribinated sheep blood
[10] = tested on: Streptococcus anginosus; test: Antimicrobial activity against invasive Streptococcus anginosus obtained from non-cystic fibrosis patient assessed as non-susceptible isolates grown on mueller-Hinton blood agar at 30 ug/ml after 24 hrs at 37 degC by disk diffusion method in presence of 5% defribinated sheep blood
[11] = tested on: Streptococcus intermedius; test: Antimicrobial activity against Streptococcus intermedius obtained from patient with cystic fibrosis assessed as non-susceptible isolates grown on brain heart infusion agar at 30 ug/ml after 24 hrs at 37 degC by disk diffusion method
[12] = tested on: Streptococcus anginosus; test: Antimicrobial activity against Streptococcus anginosus obtained from patient with cystic fibrosis assessed as non-susceptible isolates grown on mueller-Hinton blood agar at 30 ug/ml after 24 hrs at 37 degC by disk diffusion method in presence of 5% defribinated sheep blood
[13] = tested on: Streptococcus anginosus; test: Antimicrobial activity against Streptococcus anginosus obtained from patient with cystic fibrosis assessed as non-susceptible isolates grown on mueller-Hinton blood agar at 15 ug/ml after 24 hrs at 37 degC by disk diffusion method in presence of 5% defribinated sheep blood
[14] = tested on: Streptococcus intermedius; test: Antimicrobial activity against invasive Streptococcus intermedius obtained from non-cystic fibrosis patient assessed as non-susceptible isolates grown on mueller-Hinton blood agar at 15 ug/ml after 24 hrs at 37 degC by disk diffusion method in presence of 5% defribinated sheep blood
[15] = tested on: Streptococcus constellatus; test: Antimicrobial activity against invasive Streptococcus constellatus obtained from non-cystic fibrosis patient assessed as non-susceptible isolates grown on mueller-Hinton blood agar at 15 ug/ml after 24 hrs at 37 degC by disk diffusion method in presence of 5% defribinated sheep blood
[16] = tested on: Streptococcus intermedius; test: Antimicrobial activity against Streptococcus intermedius obtained from patient with cystic fibrosis assessed as non-susceptible isolates grown on mueller-Hinton blood agar at 15 ug/ml after 24 hrs at 37 degC by disk diffusion method in presence of 5% defribinated sheep blood
[17] = tested on: Streptococcus intermedius; test: Antimicrobial activity against invasive Streptococcus intermedius obtained from non-cystic fibrosis patient assessed as non-susceptible isolates grown on brain heart infusion agar at 15 ug/ml after 24 hrs at 37 degC by disk diffusion method
[18] = tested on: Streptococcus anginosus; test: Antimicrobial activity against invasive Streptococcus anginosus obtained from non-cystic fibrosis patient assessed as non-susceptible isolates grown on mueller-Hinton blood agar at 15 ug/ml after 24 hrs at 37 degC by disk diffusion method in presence of 5% defribinated sheep blood
[19] = tested on: Streptococcus constellatus; test: Antimicrobial activity against Streptococcus constellatus obtained from patient with cystic fibrosis assessed as non-susceptible isolates grown on mueller-Hinton blood agar at 15 ug/ml after 24 hrs at 37 degC by disk diffusion method in presence of 5% defribinated sheep blood
[20] = tested on: Streptococcus anginosus; test: Antimicrobial activity against Streptococcus anginosus obtained from patient with cystic fibrosis assessed as non-susceptible isolates grown on brain heart infusion agar at 15 ug/ml after 24 hrs at 37 degC by disk diffusion method
[21] = tested on: Streptococcus constellatus; test: Antimicrobial activity against Streptococcus constellatus obtained from patient with cystic fibrosis assessed as non-susceptible isolates grown on brain heart infusion agar at 15 ug/ml after 24 hrs at 37 degC by disk diffusion method
[22] = tested on: Streptococcus constellatus; test: Antimicrobial activity against invasive Streptococcus constellatus obtained from non-cystic fibrosis patient assessed as non-susceptible isolates grown on brain heart infusion agar at 15 ug/ml after 24 hrs at 37 degC by disk diffusion method
[23] = tested on: Streptococcus anginosus; test: Antimicrobial activity against invasive Streptococcus anginosus obtained from non-cystic fibrosis patient assessed as non-susceptible isolates grown on brain heart infusion agar at 15 ug/ml after 24 hrs at 37 degC by disk diffusion method
[24] = tested on: Streptococcus intermedius; test: Antimicrobial activity against Streptococcus intermedius obtained from patient with cystic fibrosis assessed as non-susceptible isolates grown on brain heart infusion agar at 15 ug/ml after 24 hrs at 37 degC by disk diffusion method
[25] = tested on: Streptococcus intermedius; test: Antimicrobial activity against Streptococcus intermedius obtained from patient with cystic fibrosis assessed as non-susceptible isolates grown on brain heart infusion agar at 2 ug/ml after 24 hrs at 37 degC by disk diffusion method; conditions: at 2 µg/mL
[26] = tested on: Streptococcus anginosus; test: Antimicrobial activity against invasive Streptococcus anginosus obtained from non-cystic fibrosis patient assessed as non-susceptible isolates grown on brain heart infusion agar at 2 ug/ml after 24 hrs at 37 degC by disk diffusion method; conditions: at 2 µg/mL
[27] = tested on: Streptococcus anginosus; test: Antimicrobial activity against Streptococcus anginosus obtained from patient with cystic fibrosis assessed as non-susceptible isolates grown on brain heart infusion agar at 2 ug/ml after 24 hrs at 37 degC by disk diffusion method; conditions: at 2 µg/mL
[28] = tested on: Streptococcus constellatus; test: Antimicrobial activity against invasive Streptococcus constellatus obtained from non-cystic fibrosis patient assessed as non-susceptible isolates grown on brain heart infusion agar at 2 ug/ml after 24 hrs at 37 degC by disk diffusion method; conditions: at 2 µg/mL
[29] = tested on: Streptococcus intermedius; test: Antimicrobial activity against invasive Streptococcus intermedius obtained from non-cystic fibrosis patient assessed as non-susceptible isolates grown on mueller-Hinton blood agar at 2 ug/ml after 24 hrs at 37 degC by disk diffusion method in presence of 5% defribinated sheep blood
[30] = tested on: Streptococcus anginosus; test: Antimicrobial activity against Streptococcus anginosus obtained from patient with cystic fibrosis assessed as non-susceptible isolates grown on mueller-Hinton blood agar at 2 ug/ml after 24 hrs at 37 degC by disk diffusion method in presence of 5% defribinated sheep blood
[31] = tested on: Streptococcus anginosus; test: Antimicrobial activity against invasive Streptococcus anginosus obtained from non-cystic fibrosis patient assessed as non-susceptible isolates grown on mueller-Hinton blood agar at 2 ug/ml after 24 hrs at 37 degC by disk diffusion method in presence of 5% defribinated sheep blood
[32] = tested on: Streptococcus constellatus; test: Antimicrobial activity against Streptococcus constellatus obtained from patient with cystic fibrosis assessed as non-susceptible isolates grown on brain heart infusion agar at 2 ug/ml after 24 hrs at 37 degC by disk diffusion method; conditions: at 2 µg/mL
[33] = tested on: Streptococcus constellatus; test: Antimicrobial activity against invasive Streptococcus constellatus obtained from non-cystic fibrosis patient assessed as non-susceptible isolates grown on mueller-Hinton blood agar at 2 ug/ml after 24 hrs at 37 degC by disk diffusion method in presence of 5% defribinated sheep blood
[34] = tested on: Streptococcus intermedius; test: Antimicrobial activity against invasive Streptococcus intermedius obtained from non-cystic fibrosis patient assessed as non-susceptible isolates grown on brain heart infusion agar at 2 ug/ml after 24 hrs at 37 degC by disk diffusion method; conditions: at 2 µg/mL
[35] = tested on: Streptococcus constellatus; test: Antimicrobial activity against Streptococcus constellatus obtained from patient with cystic fibrosis assessed as non-susceptible isolates grown on mueller-Hinton blood agar at 2 ug/ml after 24 hrs at 37 degC by disk diffusion method in presence of 5% defribinated sheep blood
[36] = tested on: Streptococcus intermedius; test: Antimicrobial activity against Streptococcus intermedius obtained from patient with cystic fibrosis assessed as non-susceptible isolates grown on mueller-Hinton blood agar at 2 ug/ml after 24 hrs at 37 degC by disk diffusion method in presence of 5% defribinated sheep blood

| Compound | Activity [2] | Activity [3] | Activity [4] | Activity [9] | Activity [10] | Activity [12] | Activity [13] | Activity [14] | Activity [15] | Activity [16] | Activity [17] | Activity [18] | Activity [19] | Activity [20] | Activity [21] | Activity [22] | Activity [23] | Activity [24] | also measured |
| --- | --- | --- | --- | --- | --- | --- | --- | --- | --- | --- | --- | --- | --- | --- | --- | --- | --- | --- | --- |
| CO/N=C(\C(=O)N[C@@H]1C(=O)N2C(C(=O)[O-])=C(C[N+]3(C)CCCC3)CS[C@H]12)c1csc(N)n1 | 0% | 0% | 0% | 0% | 0% | 2.5% | – | – | – | – | – | – | – | – | – | – | – | – | Activity [1]: 0%; Activity [5]: 0%; Activity [6]: 0%; Activity [7]: 0%; Activity [8]: 0%; Activity [11]: 3.1% |
| CN(C)[C@@H]1C(O)=C(C(N)=O)C(=O)[C@@]2(O)C(O)=C3C(=O)c4c(O)cccc4[C@@](C)(O)[C@H]3C[C@@H]12 [TETRACYCLINE] | 33.3% | 0% | 0% | 0% | – | 27.5% | – | – | – | – | – | – | – | – | – | – | – | – | – |
| CC[C@H]1OC(=O)[C@H](C)[C@@H](O[C@H]2C[C@@](C)(OC)[C@@H](O)[C@H](C)O2)[C@H](C)[C@@H](O[C@@H]2O[C@H](C)C[C@H](N(C)C)[C@H]2O)[C@](C)(O)C[C@@H](C)C(=O)[C@H](C)[C@@H](O)[C@]1(C)O [ERYTHROMYCIN] | – | – | – | – | – | – | 57.5% | 28.6% | 0% | 50% | 16.7% | 11.1% | 20% | 52.2% | 65% | 7.7% | 11.1% | 34.4% | – |
| CCC[C@@H]1C[C@@H](C(=O)N[C@@H]([C@H]2O[C@H](SC)[C@H](O)[C@@H](O)[C@H]2O)[C@H](C)Cl)N(C)C1 [CLINDAMYCIN] | – | – | – | – | – | – | – | – | – | – | – | – | – | – | – | – | – | – | Activity [25]: 28.1%; Activity [26]: 0%; Activity [27]: 56.5%; Activity [28]: 0%; Activity [29]: 28.6%; Activity [30]: 52.5%; Activity [31]: 0%; Activity [32]: 62.5%; Activity [33]: 0%; Activity [34]: 12.5%; Activity [35]: 20%; Activity [36]: 50% |
| CO/N=C(\C(=O)N[C@@H]1C(=O)N2C(C(=O)O)=C(CSc3nc(=O)c(O)nn3C)CS[C@H]12)c1csc(N)n1 [CEFTRIAXONE] | 0% | 0% | 0% | 0% | 0% | 0% | – | – | – | – | – | – | – | – | – | – | – | – | – |
| CC[C@H]1OC(=O)[C@H](C)[C@@H](O[C@H]2C[C@@](C)(OC)[C@@H](O)[C@H](C)O2)[C@H](C)[C@@H](O[C@@H]2O[C@H](C)C[C@H](N(C)C)[C@H]2O)[C@](C)(O)C[C@@H](C)CN(C)[C@H](C)[C@@H](O)[C@]1(C)O [AZITHROMYCIN] | – | – | – | – | – | – | 60% | 28.6% | 0% | 50% | 16.7% | 11.1% | 20% | 56.5% | 65% | 7.7% | 0% | 34.4% | – |
